Measurements taken from patent US20140227408A1, “MEAT TREATMENT AND PRESERVATION METHOD” (RED MEAT AS, priority 2011, published 2014).
Marks after values point to notes of the source that are not given here.

Tests used:
Parameters in all cases: species or system cattle
[1] = Colour L*, a*, b* of treated ground beef, low oxygen packaging (Example 5); conditions: for L* / a* / b*: citrate High level (0.025 mol/kg), low oxygen, adjusted mean ± standard error
Excerpt: (§1) Beef M. semimembranosus (M.S.) and beef fat tissue were collected four days post mortem (Fatland A/S, Oslo, Norway). The packaging day is defined as day zero, however, the tissues were 4 days post mortem on packing day. A piece of meat from proximal end was cut from each muscle in order to measure oxygen consumption, pH and surface colour. Fat tissue from pigs fed rapeseed and vitamin E to enhance the content of polyunsaturated fatty acids were from HKScan (Ruokatalo, Finland). The fat tissue was transported vacuum-packaged and frozen. Samples of minced fat tissue were removed for fatty acid analysis.
(§2) The beef muscles were cut into pieces of approximately 10×5 cm and mixed to 14% w/w fat by using the fat tissues. Beef fat and pork fat tissues were ground twice with either raw beef from four young (16-19 months) or four old (46-81 months) cattle. […] The ground meat was blended manually with solutions (all at pH 5.8) with various TCA and glycolytic ingredients (see below).
(§3) To maintain pH at 5.8 the solutions were prepared by mixing the acid form and the corresponding sodium salt of these chemicals.
[…] The solution was quickly and properly stirred into the minced meat and the blended system was subsequently packaged. […] Two reference samples with 40 ml of distilled water added to 360 gram of ground beef were also prepared each of the four production day, i.e. altogether 8 references were prepared. The samples were packaged in either low or high oxygen atmosphere.
(§4) The ground beef was packaged in black amorphous polyethylene terephthalate (APET) trays that were sealed with ethylene vinyl alcohol (EVOH) top films. The trays and films (Wipak Multipet and Wipak Biaxer, both Wipak, Nastola, Finland) had oxygen transmission rates of 7 and 5 cm^3/m^2/24 h at 23° C. at 50% relative humidity. Packaging was carried out within 1 hour after grinding. The samples were stored in darkness at 4° C. for 8 days in a high-oxygen atmosphere (75% oxygen and 25% CO2) and for 13 days in a low-oxygen atmosphere (60% CO2 and 40% N2). These food grade gas mixtures were supplied by AGA (Oslo, Norway).
(§5) The colour of the ground meat samples was measured with a Konica Minolta Chroma Meter CR 410 (Konica Minolta Sensing Inc., Osaka, Japan) using the glass light projection tube CR A 33e with wide illumination area (61 mm) and illuminant D65. The instrument was calibrated each day by measuring a white ceramic plate (L*=97.9; a*=0.05; b*=2). All colour measurements were made with 3 replicates (CIE, 1976, “Recommendations on uniform colour spaces-colour difference equations” (Vol. Supplement No. 2 to CIE). Paris, France: Commission Internationale de l'Eclairage).
(§6) The colour of the samples packaged in high O2 was measured after 0, 1, 3, 6 and 8, days of storage from packaging day, while low O2 samples were measured at 0 to 13 days of storage using Minolta and reflectance measurements.
The experimental design is visualized in FIG. 5. A 2^2 design (animal age and type of fat tissue) was split over 4 experimental days (FIG. 5, and Tables 10 and 11). To each corner of this 2^2 design was added a 3 component (succinate, pyruvate and glutamate-malate additions; 0, 50 and 100%) simplex lattice mixture design with 2 additional centre experiments as shown in FIG. 5.

[2] = Colour L*, a*, b* of treated ground beef, high oxygen packaging (Example 5); conditions: citrate High level
Excerpt: as §1, §2, §3
(§7) 40 g of 0.1 M or 0.05 M solutions were added to ground beef-fat mixture (360 g) to a total weight of 400 g. The solution was quickly and properly stirred into the minced meat and the blended system was subsequently packaged. […] Two reference samples with 40 ml of distilled water added to 360 gram of ground beef were also prepared each of the four production day, i.e. altogether 8 references were prepared. The samples were packaged in either low or high oxygen atmosphere.
as §4, §5, §6
The experimental design is visualized in FIG. 5. A 2^2 design (animal age and type of fat tissue) was split over 4 experimental days (FIG. 5, and Tables 10 and 11). […] 5.

myoglobin in ground beef [3] = assay: Myoglobin states (DMb, OMb, MMb) by reflectance spectra of treated ground beef, low oxygen packaging (Example 5); conditions: for DMb / MMb / OMb: citrate High level (0.025 mol/kg), low oxygen, adjusted mean ± standard error
Excerpt: as §1, §2, §3, §7, §4
(§8) Samples were scanned, […], with a Foss NIRSystems OptiProbe™ 6500 Analyzer (Foss NIRSystems Inc., Maryland, USA) without opening of the package. The package was turned upside-down before measurements so that the meat would fall on the packaging film. The samples were scanned with three random placements of the probe on the package surface in order to increase the scanning area and reduce the measurement errors. Thirty-two scans for both reference and samples were acquired and averaged on each measured area. All measurements were performed at room temperature (approx. 20° C.) according to Khatri, et al. (Meat Sci. (2012) 91(3): 223-231). These spectra were used to predict OMb, MMb and DMb levels. Calibration was performed using comminuted meat with 10% w/w added water.
as §6
(§9) The statistical analysis was performed according to the approach described by Langsrud et al. (J. Appl. Statist. (2007) 34:1275-1296) and implemented in the 50-50 MANOVA software (http://www.langsrud.com/stat/program.htm). This program handles mixture designs as generalized categorical variables (generalized ANOVA). When using this method one can always formulate equivalent models that use the individual mixture variables as ordinary (one degree of freedom) regression variables. Then one arbitrary mixture variable has to be omitted (slack variable).

myoglobin in ground beef [4] = assay: Myoglobin states (DMb, OMb, MMb) by reflectance spectra of treated ground beef, high oxygen packaging (Example 5); conditions: for DMb / MMb / OMb: citrate High level, high oxygen, adjusted mean ± standard error
Excerpt: as §1
The beef muscles were cut into pieces of approximately 10×5 cm and mixed to 14% w/w fat by using the fat tissues. Beef fat and pork fat tissues were ground twice with either raw beef from four young (16-19 months) or four old (46-81 months) cattle. The meat had pH of 5.65 and was ground with a Seydelmann ME-130 (Seydelmann, Stuttgart, Germany) grinder through a plate with 3 mm openings. The ground meat was blended manually with solutions (all at pH 5.8) with various TCA and glycolytic ingredients (see below).
as §3, §7, §4, §8, §6
as §9, with “variable). […]” for “variable).”

[5] = Day 1, adjusted mean ± standard error
[6] = Day 3, adjusted mean ± standard error
[7] = Day 6, adjusted mean ± standard error
[8] = Day 8, adjusted mean ± standard error

N[C@@H](CCC(=O)O)C(=O)O [glutamate]
effect on redness (a*), in words ([1]; low oxygen packaging): nominally higher a* values

O=C(O)CC(O)(CC(=O)O)C(=O)O [Citrate]
L* ([1]; Day 1): 33.5 ± 0.3
a* ([1]; Day 1): 6.6 ± +.3*
b* ([1]; Day 1): 2.3 ± 0.2
L* ([1]; Day 3): 33.0 ± 0.3
a* ([1]; Day 3): 7.1 ± 0.2
b* ([1]; Day 3): 2.3 ± 0.1*
L* ([1]; Day 6): 33.3 ± 0.2*
a* ([1]; Day 6): 7.5 ± 0.2
b* ([1]; Day 6): 2.2 ± 0.1*
L* ([1]; Day 8): 33.4 ± 0.2*
a* ([1]; Day 8): 7.5 ± 0.2
b* ([1]; Day 8): 2.1 ± 0.1*
L* ([1]; Day 10): 33.4 ± 0.2*
a* ([1]; Day 10): 7.6 ± 0.2
b* ([1]; Day 10): 2.1 ± 0.1
L* ([1]; Day 13): 33.2 ± 0.3*
a* ([1]; Day 13): 7.6 ± 0.4
b* ([1]; Day 13): 2.1 ± 0.2*
L* [2, 5]: 34.2 ± 0.3
a* [2, 5]: 13.0 ± 0.2*
b* [2, 5]: 4.5 ± 0.1*
L* [2, 6]: 33.6 ± 0.3*
a* [2, 6]: 12.3 ± 0.2*
b* [2, 6]: 4.4 ± 0.1*
L* [2, 7]: 33.8 ± 0.3
a* [2, 7]: 11.0 ± 0.3
b* [2, 7]: 4.1 ± 0.2*
L* [2, 8]: 33.9 ± 0.3
a* [2, 8]: 10.3 ± 0.2
b* [2, 8]: 4.0 ± 0.1*
DMb (myoglobin in ground beef [3]; Day 1): 42.1 ± 3.3 %
MMb (myoglobin in ground beef [3]; Day 1): 50.2 ± 3.0 %
OMb (myoglobin in ground beef [3]; Day 1): 7.8 ± 0.4 %
DMb (myoglobin in ground beef [3]; Day 3): 55.5 ± 3.3 %
MMb (myoglobin in ground beef [3]; Day 3): 39.1 ± 3.1 %
OMb (myoglobin in ground beef [3]; Day 3): 5.5 ± 0.4%
DMb (myoglobin in ground beef [3]; Day 6): 64.9 ± 3.1%
OMb (myoglobin in ground beef [3]; Day 6): 3.7 ± 0.4%
DMb (myoglobin in ground beef [3]; Day 8): 66.6 ± 3.1%
OMb (myoglobin in ground beef [3]; Day 8): 4.1 ± 0.4%
DMb (myoglobin in ground beef [3]; Day 10): 69.9 ± 3.0%
MMb (myoglobin in ground beef [3]; Day 10): 26.3 ± 2.9 %
OMb (myoglobin in ground beef [3]; Day 10): 3.8 ± 0.3%
DMb (myoglobin in ground beef [3]; Day 13): 72.3 ± 4.1 %
MMb (myoglobin in ground beef [3]; Day 13): 23.9 ± 3.8 %
OMb (myoglobin in ground beef [3]; Day 13): 3.8 ± 0.5 %
effect on myoglobin states (DMb, OMb, MMb), in words (myoglobin in ground beef [3]; low oxygen packaging): increased OMb and MMb while the DMb was reduced
DMb (myoglobin in ground beef [4]; Day 1): 0.0 ± 0.0 %
MMb (myoglobin in ground beef [4]; Day 1): 6.6 ± 0.3%
OMb (myoglobin in ground beef [4]; Day 1): 93.4 ± 0.6%
DMb (myoglobin in ground beef [4]; Day 3): 0.0 ± 0.0%
MMb (myoglobin in ground beef [4]; Day 3): 10.5 ± 0.6%
OMb (myoglobin in ground beef [4]; Day 3): 89.5 ± 0.6%
DMb (myoglobin in ground beef [4]; Day 6): 0.5 ± 0.3%
MMb (myoglobin in ground beef [4]; Day 6): 20.4 ± 0.6%
OMb (myoglobin in ground beef [4]; Day 6): 79.1 ± 0.7%
DMb (myoglobin in ground beef [4]; Day 8): 0.6 ± 0.2%
MMb (myoglobin in ground beef [4]; Day 8): 26.7 ± 0.7%
OMb (myoglobin in ground beef [4]; Day 8): 72.7 ± 0.8%
effect on myoglobin states (DMb, OMb, MMb), in words (myoglobin in ground beef [4]; high oxygen packaging): nominal higher values for OMb
